Experimental data from PubChem BioAssay AID248 (DTP/NCI, 2004).
Toxic doses and inconclusive results are not listed. No stated cut-off is given here; in the data, active means T/C of 150% or more; inactive means T/C below 125%.

System: L1210 leukemia ip in BDF1 mice, survival T/C
Assay: NCI In Vivo Anticancer Drug Screen. Data for tumor model L1210 Leukemia (intraperitoneal) in B6D2F1 (BDF1) mice
Details: endpoint: mean survival time, higher = longer survival
Summary of the method: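 Survival endpoint. Drug-treated group vs vehicle group, expressed as T divided by C. Tumor passaged by transplantation.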

[1] = dose: 100.0 mg/kg/injection, schedule: Q01DX009 (ip), vehicle: saline with Tween-80
[2] = dose: 100.0 mg/kg/injection, schedule: Q04DX003 (ip), vehicle: saline with Tween-80
[3] = dose: 200.0 mg/kg/injection, schedule: Q01DX009 (ip), vehicle: saline with Tween-80
[4] = dose: 400.0 mg/kg/injection, schedule: Q01DX009 (ip), vehicle: saline with Tween-80
[5] = dose: 100.0 mg/kg/injection, schedule: Q01DX001 (ip), vehicle: saline
[6] = dose: 100.0 mg/kg/injection, schedule: Q04DX003 (ip), vehicle: saline
[7] = dose: 200.0 mg/kg/injection, schedule: Q04DX003 (ip), vehicle: saline

Measured: T/C

CCN(C(=O)Nc1cccc(Cl)c1)c1ccccc1
inactive: [1] 90 % of control | [2] 96 % of control | [3] 90 % of control | dose: 200.0 mg/kg/injection, schedule: Q04DX003 (ip), vehicle: saline with Tween-80 97 % of control | [4] 86 % of control | dose: 400.0 mg/kg/injection, schedule: Q04DX003 (ip), vehicle: saline with Tween-80 97 % of control

CCN(CC)CCNC(c1ccccc1)C(Cl)(Cl)Cl (centres undefined)
inactive: [5] 100 % of control

CCC#CC(=O)OCCCCC
inactive: dose: 100.0 mg/kg/injection, schedule: Q04DX002 (ip), vehicle: saline 105 % of control | dose: 200.0 mg/kg/injection, schedule: Q04DX002 (ip), vehicle: saline 102 % of control | dose: 400.0 mg/kg/injection, schedule: Q04DX002 (ip), vehicle: saline 108 % of control

COc1ccc2c3c(ccc2c1)C(=O)C(C)(C#N)CC3 (centres undefined)
inactive: dose: 100.0 mg/kg/injection, schedule: Q01DX009 (ip), vehicle: saline 88 % of control | [6] 89 % of control | dose: 200.0 mg/kg/injection, schedule: Q01DX009 (ip), vehicle: saline 91 % of control | [7] 89 % of control | dose: 400.0 mg/kg/injection, schedule: Q01DX009 (ip), vehicle: saline 95 % of control | dose: 400.0 mg/kg/injection, schedule: Q04DX003 (ip), vehicle: saline 94 % of control

C#CC(OC(=O)N(C)C)(c1ccccc1)c1ccc(F)cc1 (centres undefined)
inactive: dose: 5.0 mg/kg/injection, schedule: Q01DX001 (ip), vehicle: saline 108 % of control | dose: 10.0 mg/kg/injection, schedule: Q01DX001 (ip), vehicle: saline 105 % of control | dose: 20.0 mg/kg/injection, schedule: Q01DX001 (ip), vehicle: saline 109 % of control | dose: 40.0 mg/kg/injection, schedule: Q01DX001 (ip), vehicle: saline 117 % of control

Cc1ccc(/C=C/c2ccccc2)cc1
inactive: dose: 75.0 mg/kg/injection, schedule: Q01DX009 (ip), vehicle: Klucel (hydroxypropylcellulose) (HPC) 98 % of control | dose: 150.0 mg/kg/injection, schedule: Q01DX009 (ip), vehicle: Klucel (hydroxypropylcellulose) (HPC) 104 % of control | dose: 300.0 mg/kg/injection, schedule: Q01DX009 (ip), vehicle: Klucel (hydroxypropylcellulose) (HPC) 103 % of control

O=P(c1c(F)c(F)c(F)c(F)c1F)(c1c(F)c(F)c(F)c(F)c1F)c1c(F)c(F)c(F)c(F)c1F
inactive: dose: 100.0 mg/kg/injection, schedule: Q01DX001 (ip), vehicle: saline with Tween-80 91 % of control | dose: 200.0 mg/kg/injection, schedule: Q01DX001 (ip), vehicle: saline with Tween-80 91 % of control

CC(C)NNC(=O)c1ccc(Cl)cc1
inactive: dose: 25.0 mg/kg/injection, schedule: Q01DX009 (ip), vehicle: Klucel (hydroxypropylcellulose) (HPC) 92 % of control | dose: 25.0 mg/kg/injection, schedule: Q04DX003 (ip), vehicle: Klucel (hydroxypropylcellulose) (HPC) 96 % of control | dose: 50.0 mg/kg/injection, schedule: Q01DX009 (ip), vehicle: Klucel (hydroxypropylcellulose) (HPC) 93 % of control | dose: 50.0 mg/kg/injection, schedule: Q04DX003 (ip), vehicle: Klucel (hydroxypropylcellulose) (HPC) 89 % of control | dose: 100.0 mg/kg/injection, schedule: Q01DX009 (ip), vehicle: Klucel (hydroxypropylcellulose) (HPC) 103 % of control | [1] 88 % of control | dose: 100.0 mg/kg/injection, schedule: Q04DX003 (ip), vehicle: Klucel (hydroxypropylcellulose) (HPC) 94 % of control | [3] 98 % of control | dose: 200.0 mg/kg/injection, schedule: Q04DX003 (ip), vehicle: Klucel (hydroxypropylcellulose) (HPC) 86 % of control | [4] 90 % of control | dose: 400.0 mg/kg/injection, schedule: Q04DX003 (ip), vehicle: Klucel (hydroxypropylcellulose) (HPC) 102 % of control

CCCN(CCC)CP(=O)(CN(CCC)CCC)CN(CCC)CCC
inactive: dose: 25.0 mg/kg/injection, schedule: Q04DX003 (ip), vehicle: saline with Tween-80 92 % of control | dose: 50.0 mg/kg/injection, schedule: Q04DX003 (ip), vehicle: saline with Tween-80 90 % of control | [2] 93 % of control

CCOP(=O)(/C=C/NC1CCCCC1)OCC
inactive: dose: 50.0 mg/kg/injection, schedule: Q04DX003 (ip), vehicle: saline 90 % of control | [5] 109 % of control | [6] 89 % of control | dose: 200.0 mg/kg/injection, schedule: Q01DX001 (ip), vehicle: saline 114 % of control | [7] 101 % of control
